Experimental data reported in publication PMC10053230, “Constituents of the Stem Bark of Symphonia globulifera Linn. f. with Antileishmanial and Antibacterial Activities” (Molecules, 2023).
In brackets after ≈: the same amount, converted by molar mass. Read-outs that look alike come from different tables or passages of the source.

Columns and labels:
[1] = test system: Raw 264.7 macrophage cells; assay: Cytotoxicity, Alamar blue assay; type: cell-based; settings: for Selectivity Index SI (=CC50/IC50): CC50 Raw 264.7 macrophages / IC50 L. donovani
Description: (§1) (2010) with little modifications. […] Test plates were incubated for 28 h at 28 °C, followed by the addition of 1 mg/mL resazurin. […] The cytotoxicity profile of the crude extract and compounds was assessed using the Alamar blue assay (Mosman, 1983) against Raw 264.7 macrophage cells.

[2] = Cytotoxicity, Alamar blue assay; type: cell-based; settings: mouse; Raw 264.7 macrophage cells; read-out: Macrophages CC50 ± SD
Description: as §1

[3] = test system: L. donovani NR-48822 promastigotes; assay: In vitro antileishmanial assay, resazurin colorimetric method; type: cell-based, Leishmania donovani; settings: 28 h at 28 °C, triplicate; for IC50: Leishmania donovani, read-out: Antileishmanial Activity IC50 ± SD
Description: The antileishmanial activity on cultured L. donovani 1S (MHOM/SD/62/1S) promastigotes was evaluated using the resazurin colorimetric method as described by Siqueira-Neto et al. (2010) with little modifications. They were all assessed in triplicate at concentrations ranging from 100 to 0.16 µg/mL for the extract and 50–0.08 µg/mL for the compounds. Test plates were incubated for 28 h at 28 °C, followed by the addition of 1 mg/mL resazurin. The negative and positive controls were 0.1% DMSO and amphotericin B (10–0.016 µg/mL), respectively. The cytotoxicity profile of the crude extract and compounds was assessed using the Alamar blue assay (Mosman, 1983) against Raw 264.7 macrophage cells.

[4] = test system: K. pneumoniae NR41388; assay: Antibacterial broth microdilution (MIC); type: cell-based, Klebsiella pneumoniae
Description: (§2) The minimum inhibitory concentration (MIC) of the samples was evaluated following the broth microdilution method as described by Eloff, with light modifications. The extracts, compounds, and reference drug were dissolved in DMSO-MHB. […] Gentamicin was used as the positive control. Briefly, one hundred microliters of Mueller Hinton Broth was added to all wells of the 96-well plate, and 100 µL of the compounds/extracts was introduced into the wells in the first row (A) and mixed thoroughly. The sample mixture (100 µL) was removed from the well from row A to perform a twofold serial dilution down the rows (B–H). The last 100 µL was discarded. Then, 100 µL of the inoculum was introduced into the corresponding wells. The final volume in each well was 200 µL. Each extract concentration was assayed in triplicate and each test was performed twice. After an incubation period of 18 h at 37 °C, 20 µL of Alamar Blue was added to each well. The plates were then re-incubated for 30 min at 37 °C. A blue color in the well was scored as ‘‘no bacterial growth”, while a pink color was scored as a ‘‘growth occurrence”. MIC values were read at those concentrations where a pronounced change in color formation was noticed (from blue to pink).

[5] = test system: Salmonella typhi CPC; assay: Antibacterial broth microdilution (MIC); type: cell-based; settings: Salmonella enterica, read-out: Antibacterial Activity MIC, St
Description: as §2

[6] = test system: Pseudomonas aeruginosa HM801; assay: Antibacterial broth microdilution (MIC); type: cell-based
Description: as §2

[7] = test system: S. enterica NR13555; assay: Antibacterial broth microdilution (MIC); type: cell-based; settings: Salmonella enterica, read-out: Antibacterial Activity MIC, Se
Description: as §2

[8] = test system: Staphylococcus aureus ATCC43300; assay: Antibacterial broth microdilution (MIC); type: cell-based; settings: read-out: Antibacterial Activity MIC, Sa
Description: as §2

[9] = test system: Klebsiella pneumoniae clinical isolate; assay: Antibacterial broth microdilution (MIC); type: cell-based; settings: read-out: Antibacterial Activity MIC, Kpc
Description: as §2

[10] = test system: S. aureus ATCC25923; assay: Antibacterial broth microdilution (MIC); type: cell-based; settings: Staphylococcus aureus, read-out: Antibacterial Activity MIC, Sau
Description: as §2

[11] = Pseudomonas aeruginosa HM801, read-out: Antibacterial Activity MIC, Pa
[12] = Klebsiella pneumoniae clinical isolate

Compound | Selectivity Index SI (=CC50/IC50) [1] | CC50 [2] [µg/mL] | IC50 [3] [µg/mL] | MIC [5] [µg/mL] | MIC [7] [µg/mL] | MIC [8] [µg/mL] | MIC [10] [µg/mL] | further results
COc1cc2c(=O)c3c(O)c4c(c(CC=C(C)C)c3oc2c(O)c1O)OC(C)(C)C=C4 [Compound 7, xanthone V2] | >1.54 | > 20 | 12.9 ± 1.11 (≈ 30.4 µM) | – | – | – | – | –
COc1cc2c(=O)c3c(O)c4c(c(CC=C(C)C)c3oc2c(O)c1OC)OC(C)(C)C=C4 [Compound 6, gaboxanthone] | >1.25 | > 20 | 16 ± 1.2 (≈ 36.4 µM) | – | – | – | – | –
C=C(C)CCC1CC2(CC=C(C)C)C(=O)C(=C(O)c3ccc(O)c(O)c3)C(=O)C(CC=C(C)C)(C2=O)C1(C)CCC=C(C)C (stereo not shown) [Compound 1, guttiferone U] | 2.17 | 28.1 ± 5.72 (≈ 46.5 µM) | 12.9 ± 1.11 (≈ 21.4 µM) | 3.9 (≈ 6.47 µM) | 62.5 (≈ 104 µM) | 125 (≈ 207 µM) | 3.9 (≈ 6.47 µM) | Antibacterial Activity MIC, Kp [4]: 62.5 µg/mL; MIC [6, 11]: 3.9 µg/mL (≈ 6.47 µM); MIC [9, 12]: 3.9 µg/mL (≈ 6.47 µM)
1,5-dihydroxy-3-methoxyxanthone [Compound 10] | – | – | – | – | – | – | – | Macrophages CC50 ± SD ([1]; Raw 264.7 macrophage cells): >20 µg/mL; Antileishmanial Activity IC50 ± SD [3]: 47.04 ± 1.67 µg/mL
CC(C)=CCCC(C)=CCCC(C)=CCCC1(C)CCC2=C(O1)C(C)(O)C(O)C2=O (stereo not shown) [Compound 4, 12-farnesyl-6,7-dihydroxy-7-methyl-3,4,6,7-tetrahydrocyclopenta[b]pyran-5(2H)-one] | – | > 20 | 14 ± 1.14 (≈ 33.7 µM) | 31.2 (≈ 74.9 µM) | 125 (≈ 300 µM) | 500 (≈ 1200 µM) | 62.5 (≈ 150 µM) | Antibacterial Activity MIC, Kp [4]: 62.5 µg/mL; MIC ([6]; Pseudomonas aeruginosa, HM801, read-out: Antibacterial Activity MIC, Pa): 31.2 µg/mL (≈ 74.9 µM); MIC ([9]; Klebsiella pneumoniae): 31.2 µg/mL (≈ 74.9 µM)
CC1(C)C=Cc2c(cc3oc4c(O)c5c(cc4c(=O)c3c2O)C=CC(C)(C)O5)O1 [Compound 8, pyranojacareubin] | >1.54 | > 20 | 12.9 ± 1.11 (≈ 32.9 µM) | – | – | – | – | –
C[C@@H]1[C@H](O)[C@@H](C)/C=C/C=C/C=C/C=C/C=C/C=C/C=C/[C@H](O[C@@H]2O[C@H](C)[C@@H](O)[C@H](N)[C@@H]2O)C[C@@H]2O[C@](O)(C[C@@H](O)C[C@@H](O)[C@H](O)CC[C@@H](O)C[C@@H](O)CC(=O)O[C@H]1C)C[C@H](O)[C@H]2C(=O)O [Amphotericin B, reference compound] | – | – | 0.048 (≈ 0.0519 µM) | – | – | – | – | –
CNC(C)C1CCC(N)C(OC2C(N)CC(N)C(OC3OCC(C)(O)C(NC)C3O)C2O)O1 (stereo not shown) [Gentamycin, reference compound] | – | – | – | 0.048 (≈ 0.101 µM) | 0.07 (≈ 0.147 µM) | 0.07 (≈ 0.147 µM) | 0.03 (≈ 0.0628 µM) | MIC [6, 11]: 0.048 µg/mL (≈ 0.101 µM); MIC [9, 12]: 0.048 µg/mL (≈ 0.101 µM)
